# Data reported in US4459290A, “C-23-Modified derivatives of OMT, pharmaceutical compositions and method of use” (priority 1982, dated 1984).
# Like-named read-outs stand apart in the source and are kept apart here.
# How the values were obtained:
# Escherichia coli EC14 = assay: MIC, standard agar-dilution assay (Table V); format: cell-based; conditions: Escherichia coli; E. coli EC14; agar dilution; read-out: MIC
# Procedure: (§1) Especially noteworthy is the improved activity against gram-negative bacteria for several derivatives when compared to the activity of OMT. […] The MIC's in Tables V and VI were determined by standard agar-dilution assays. The MIC's in Table VII were obtained using a conventional broth-dilution microtiter test.
# Escherichia coli N10 = assay: MIC, standard agar-dilution assay (Table V); format: cell-based; conditions: Escherichia coli; E. coli N10; agar dilution; read-out: MIC
# Procedure: as §1
# [1] = system: Klebsiella pneumoniae KAE; assay: MIC, standard agar-dilution assay (Table V); format: cell-based; conditions: Klebsiella pneumoniae; K. pneumoniae KAE; agar dilution; read-out: MIC
# Procedure: as §1
# [2] = system: Klebsiella pneumoniae X26; assay: MIC, standard agar-dilution assay (Table V); format: cell-based; conditions: Klebsiella pneumoniae
# Procedure: as §1
# Shigella sonnei N9 = assay: MIC, standard agar-dilution assay (Table V); format: cell-based
# Procedure: as §1
# [3] = system: Staphylococcus aureus S13E; assay: MIC, standard agar-dilution assay (Table V); format: cell-based; conditions: Staphylococcus aureus, S13E
# Procedure: as §1
# [4] = system: Staphylococcus aureus V41; assay: MIC, standard agar-dilution assay (Table V); format: cell-based; conditions: Staphylococcus aureus, V41
# Procedure: as §1
# [5] = system: Staphylococcus aureus X1.1; assay: MIC, standard agar-dilution assay (Table V); format: cell-based; conditions: Staphylococcus aureus, X1.1
# Procedure: as §1
# [6] = system: Staphylococcus aureus X400; assay: MIC, standard agar-dilution assay (Table V); format: cell-based; conditions: Staphylococcus aureus, X400
# Procedure: as §1
# [7] = system: Staphylococcus epidermidis EPI1; assay: MIC, standard agar-dilution assay (Table V); format: cell-based; conditions: Staphylococcus epidermidis
# Procedure: as §1
# [8] = system: Staphylococcus epidermidis EPI2; assay: MIC, standard agar-dilution assay (Table V); format: cell-based; conditions: Staphylococcus epidermidis
# Procedure: as §1
# Streptococcus Group 9960 = assay: MIC, standard agar-dilution assay (Table V); format: cell-based; conditions: GROUP9960
# Procedure: as §1
# [9] = system: Streptococcus Group D X66; assay: MIC, standard agar-dilution assay (Table V); format: cell-based
# Procedure: as §1
# Escherichia coli TEM = assay: MIC, standard agar-dilution assay (Table V); format: cell-based; conditions: Escherichia coli; E. coli TEM; agar dilution; read-out: MIC
# Procedure: (§2) The MIC's in Tables V and VI were determined by standard agar-dilution assays. The MIC's in Table VII were obtained using a conventional broth-dilution microtiter test.
# [10] = system: Haemophilus influenzae Holt; assay: MIC, standard agar-dilution assay (Table V); format: cell-based; conditions: Haemophilus influenzae
# Procedure: as §2
# [11] = system: Haemophilus influenzae R252; assay: MIC, standard agar-dilution assay (Table V); format: cell-based; conditions: Haemophilus influenzae, R252
# Procedure: as §2
# [12] = system: Streptococcus pyogenes C203; assay: MIC, standard agar-dilution assay (Table V); format: cell-based; conditions: Streptococcus pyogenes, C203
# Procedure: as §2
# Mycoplasma gallisepticum = assay: MIC, broth-dilution microtiter test (Table VII); format: cell-based; conditions: Mycoplasmoides gallisepticum
# Procedure: as §1
# Mycoplasma hyorhinis = assay: MIC, broth-dilution microtiter test (Table VII); format: cell-based
# Procedure: as §1
# Mycoplasma synoviae = assay: MIC, broth-dilution microtiter test (Table VII); format: cell-based; conditions: Mycoplasmopsis synoviae
# Procedure: as §1
# [13] = system: Pasteurella hemolytica 22C; assay: MIC, broth-dilution microtiter test (Table VII); format: cell-based; conditions: Pasteurella, P. hemolytica 22C, read-out: MIC
# Procedure: as §1
# [14] = system: Pasteurella hemolytica 23C; assay: MIC, broth-dilution microtiter test (Table VII); format: cell-based; conditions: Pasteurella, P. hemolytica 23C, read-out: MIC
# Procedure: as §1
# [15] = system: Pasteurella hemolytica 41D; assay: MIC, broth-dilution microtiter test (Table VII); format: cell-based; conditions: Pasteurella, P. hemolytica 41D, read-out: MIC
# Procedure: as §1
# [16] = system: Pasteurella multocida 17E; assay: MIC, broth-dilution microtiter test (Table VII); format: cell-based; conditions: Pasteurella multocida
# Procedure: as §1
# [17] = system: Pasteurella multocida 22A; assay: MIC, broth-dilution microtiter test (Table VII); format: cell-based; conditions: Pasteurella multocida
# Procedure: as §1
# [18] = system: Pasteurella multocida 40G; assay: MIC, broth-dilution microtiter test (Table VII); format: cell-based; conditions: Pasteurella multocida
# Procedure: as §1
# [19] = system: Pasteurella multocida 60A; assay: MIC, broth-dilution microtiter test (Table VII); format: cell-based; conditions: Pasteurella multocida
# Procedure: as §1
# [20] = system: Pasteurella multocida 68C; assay: MIC, broth-dilution microtiter test (Table VII); format: cell-based; conditions: Pasteurella multocida
# Procedure: as §1
# Staphylococcus aureus = assay: MIC, broth-dilution microtiter test (Table VII); format: cell-based; conditions: Staphylococcus aureus
# Procedure: as §1
# Streptococcus sp. 80 = assay: MIC, broth-dilution microtiter test (Table VII); format: cell-based
# Procedure: as §1
# [21] = system: Streptococcus pyogenes C203; assay: ED50 in mice experimentally infected with S. pyogenes C203 (Table VIII); format: in vivo
# Procedure: The C-23 modified derivatives of OMT of this invention have shown in vivo antimicrobial activity against experimental infections. When two doses of test compound were administered to mice experimentally infected with a gram-positive bacterium, S. pyogenes C203, the activity observed was measured as an ED50 value [effective dose in mg/kg to protect 50% of the test animals: see Warren Wick, et al., J. Bacteriol. 81, 233-235 (1961)].
# these strains = assay: Activity against the strains of Table VI, agar-dilution; format: cell-based; conditions: at the levels tested
# Procedure: as §1
# [22] = system: Streptococcus pneumoniae Park I; assay: microbe, parasite or virus in culture; format: cell-based; conditions: Streptococcus pneumoniae
# Procedure: as §1
# [23] = system: Citrobacter freundii CF17; assay: MIC, standard agar-dilution assay (Table VI); format: cell-based; conditions: C. freundii CF17, agar dilution, read-out: MIC
# Procedure: as §1
# [24] = system: Enterobacter aerogenes C32; assay: MIC, standard agar-dilution assay (Table VI); format: cell-based; conditions: Klebsiella aerogenes; E. aerogenes C32; agar dilution; read-out: MIC
# Procedure: as §1
# [25] = system: Enterobacter aerogenes EB17; assay: MIC, standard agar-dilution assay (Table VI); format: cell-based; conditions: Klebsiella aerogenes; E. aerogenes EB17; agar dilution; read-out: MIC
# Procedure: as §1
# Enterobacter cloacae EB5 = assay: MIC, standard agar-dilution assay (Table VI); format: cell-based; conditions: E. cloacae EB5, agar dilution, read-out: MIC
# Procedure: as §1
# [26] = system: Klebsiella pneumoniae X68; assay: MIC, standard agar-dilution assay (Table VI); format: cell-based; conditions: K. pneumoniae X68, agar dilution, read-out: MIC
# Procedure: as §1
# Proteus inconstans PR33 = assay: MIC, standard agar-dilution assay (Table VI); format: cell-based; conditions: Providencia alcalifaciens; P. inconstans PR33; agar dilution; read-out: MIC
# Procedure: as §1
# Proteus morganii PR15 = assay: MIC, standard agar-dilution assay (Table VI); format: cell-based; conditions: Morganella morganii; P. morganii PR15; agar dilution; read-out: MIC
# Procedure: as §1
# Proteus rettgeri C24 = assay: MIC, standard agar-dilution assay (Table VI); format: cell-based; conditions: Providencia rettgeri, P. rettgeri C24
# Procedure: as §1
# Proteus rettgeri PR7 = assay: MIC, standard agar-dilution assay (Table VI); format: cell-based; conditions: Providencia rettgeri; P. rettgeri PR7; agar dilution; read-out: MIC
# Procedure: as §1
# [27] = system: Pseudomonas aeruginosa Ps18; assay: MIC, standard agar-dilution assay (Table VI); format: cell-based; conditions: P. aeruginosa Ps18, agar dilution, read-out: MIC
# Procedure: as §1
# [28] = system: Pseudomonas aeruginosa X239; assay: MIC, standard agar-dilution assay (Table VI); format: cell-based; conditions: P. aeruginosa X239, agar dilution, read-out: MIC
# Procedure: as §1
# [29] = system: Pseudomonas aeruginosa X528; assay: MIC, standard agar-dilution assay (Table VI); format: cell-based; conditions: X528
# Procedure: as §1
# [30] = system: Salmonella heidelberg X514; assay: MIC, standard agar-dilution assay (Table VI); format: cell-based; conditions: Salmonella enterica; S. heidelberg X514; agar dilution; read-out: MIC
# Procedure: as §1
# Salmonella typhi 1335 = assay: MIC, standard agar-dilution assay (Table VI); format: cell-based; conditions: Salmonella enterica
# Procedure: as §1
# Serratia marcescens SE3 = assay: MIC, standard agar-dilution assay (Table VI); format: cell-based; conditions: S. marcescens SE3, agar dilution, read-out: MIC
# Procedure: as §1
# Serratia marcescens X99 = assay: MIC, standard agar-dilution assay (Table VI); format: cell-based; conditions: S. marcescens X99, agar dilution, read-out: MIC
# Procedure: as §1
# [31] = C203, sc, read-out: ED50, Subcutaneous
structure (smiles),measurement,setting,value
C=C1C=CC(=O)C(C)CC(CC=O)C(OC2OC(C)C(O)C(N(C)C)C2O)C(C)C(O)CC(=O)OC(CC)C2CC12 (stereo not shown) [Compound 16],MIC,Escherichia coli EC14,> 128 µg/mL
same,MIC,Escherichia coli N10,> 128 µg/mL
same,MIC,[1],> 128 µg/mL
same,MIC,[2]; X26,64 µg/mL
same,MIC,Shigella sonnei N9,> 128 µg/mL
same,MIC,[3],4 µg/mL
same,MIC,[4],4 µg/mL
same,MIC,[5],4 µg/mL
same,MIC,[6],4 µg/mL
same,MIC,"[7]; S. epidermidis EPI1, agar dilution, read-out: MIC",4 µg/mL
same,MIC,"[8]; S. epidermidis EPI2, agar dilution, read-out: MIC",4 µg/mL
same,MIC,Streptococcus Group 9960,8 µg/mL
same,MIC,[9],4 µg/mL
same,MIC,Escherichia coli TEM,> 128 µg/mL
same,MIC,[10],64 µg/mL
same,MIC,[11],64 µg/mL
same,MIC,[12],1 µg/mL
same,MIC,Mycoplasma gallisepticum,1.56 µg/mL
same,MIC,Mycoplasma hyorhinis,12.5 µg/mL
same,MIC,Mycoplasma synoviae,12.5 µg/mL
same,MIC,[13],> 50 µg/mL
same,MIC,[14],50 µg/mL
same,MIC,[15],50 µg/mL
same,MIC,"[16]; P. multocida 17E, bovine isolate, broth-dilution microtiter, read-out: MIC",25 µg/mL
same,MIC,"[17]; P. multocida 22A, broth-dilution microtiter, read-out: MIC",25 µg/mL
same,MIC,"[18]; P. multocida 40G, broth-dilution microtiter, read-out: MIC",25 µg/mL
same,MIC,"[19]; P. multocida 60A, avian isolate, broth-dilution microtiter, read-out: MIC",25 µg/mL
same,MIC,"[20]; P. multocida 68C, broth-dilution microtiter, read-out: MIC",25 µg/mL
same,MIC,Staphylococcus aureus,12.5 µg/mL
same,MIC,"Streptococcus sp. 80; Streptococcus sp. 80, broth-dilution microtiter, read-out: MIC",6.25 µg/mL
same,ED50,"[21]; C203, po, read-out: ED50, Oral",> 100 mg/kg
same,ED50,[21]; [31],> 30 mg/kg
same,activity against these strains,these strains,did not show activity
CCC1OC(=O)CC(O)C(C)C(OC2OC(C)C(O)C(N(C)C)C2O)C(CC=O)CC(C)C(=O)C=CC(C)(OC)C2CC12 (stereo not shown) [Compound 17],MIC,Escherichia coli EC14,> 128 µg/mL
same,MIC,Escherichia coli N10,> 128 µg/mL
same,MIC,[1],> 128 µg/mL
same,MIC,"[2]; K. pneumoniae X26, agar dilution, read-out: MIC",16 µg/mL
same,MIC,Shigella sonnei N9,> 128 µg/mL
same,MIC,[3],2 µg/mL
same,MIC,[4],2 µg/mL
same,MIC,[5],2 µg/mL
same,MIC,[6],2 µg/mL
same,MIC,[7]; EPI1,2 µg/mL
same,MIC,[8]; EPI2,2 µg/mL
same,MIC,Streptococcus Group 9960,2 µg/mL
same,MIC,[9],2 µg/mL
same,MIC,Escherichia coli TEM,64 µg/mL
same,MIC,[10],8 µg/mL
same,MIC,[11],8 µg/mL
same,MIC,[12],1 µg/mL
same,MIC,[22],0.25 µg/mL
same,MIC,[23],> 128 µg/mL
same,MIC,[24],> 128 µg/mL
same,MIC,[25],> 128 µg/mL
same,MIC,Enterobacter cloacae EB5,> 128 µg/mL
same,MIC,[26],> 128 µg/mL
same,MIC,Proteus inconstans PR33,> 128 µg/mL
same,MIC,Proteus morganii PR15,> 128 µg/mL
same,MIC,Proteus rettgeri C24,> 128 µg/mL
same,MIC,Proteus rettgeri PR7,> 128 µg/mL
same,MIC,[27],> 128 µg/mL
same,MIC,[28],> 128 µg/mL
same,MIC,[29],64 µg/mL
same,MIC,[30],> 128 µg/mL
same,MIC,Salmonella typhi 1335,> 128 µg/mL
same,MIC,Serratia marcescens SE3,> 128 µg/mL
same,MIC,Serratia marcescens X99,> 128 µg/mL
same,MIC,Mycoplasma gallisepticum,0.78 µg/mL
same,MIC,"Mycoplasma hyorhinis; M. hyorhinis, broth-dilution microtiter, read-out: MIC",25 µg/mL
same,MIC,Mycoplasma synoviae,1.56 µg/mL
same,MIC,[13],25 µg/mL
same,MIC,[14],25 µg/mL
same,MIC,[15],25 µg/mL
same,MIC,[16]; 17E,6.25 µg/mL
same,MIC,[17]; 22A,6.25 µg/mL
same,MIC,[18]; 40G,6.25 µg/mL
same,MIC,[19]; 60A,12.5 µg/mL
same,MIC,[20]; 68C,6.25 µg/mL
same,MIC,Staphylococcus aureus,3.12 µg/mL
same,MIC,"Streptococcus sp. 80; Streptococcus, SP.80",1.56 µg/mL
same,ED50,"[21]; C203, po, read-out: ED50, Oral",> 100 mg/kg
same,ED50,[21]; [31],> 25 mg/kg
